≈ marks a conversion by molar mass, not a printed value. Read-outs that look alike come from different tables or passages of the source.
Legend:
Assay type in all cases: cell-based
[1] = test system: Streptococcus pyogenes 1079; experiment: MIC, microtiter broth dilution (NCCLS M100-S14), S. pyogenes 1079 (ermB)
Method in brief: (§1)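 Panel strains, including macrolide-resistant isolates and their susceptible parents where available, are exposed to serial compound dilutions in microtiter trays. Growth inhibition is scored as MIC under NCCLS M100-S14 standards.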

[2] = test system: Streptococcus pneumoniae 1016; experiment: MIC, microtiter broth dilution (NCCLS M100-S14), S. pneumoniae 1016 (susceptible)
Method in brief: as §1

[3] = test system: Streptococcus pneumoniae 1095; settings: microtiter broth dilution
Method in brief: as §1

[4] = test system: Streptococcus pneumoniae 1175; settings: microtiter broth dilution
Method in brief: as §1

[5] = test system: Haemophilus influenzae 1218; experiment: MIC, microtiter broth dilution (NCCLS M100-S14), H. influenzae 1218 (susceptible)
Description: The assay described herein includes a panel of bacterial strains assembled to include a variety of target pathogenic species, including representatives of macrolide resistance mechanisms that have been characterized. In many cases, both the macrolide-susceptible parent strain and the macrolide-resistant strain derived from it are available to provide a more accurate assessment of the compound's ability to circumvent the resistance mechanism. The assay is performed in microtiter trays and interpreted according to Performance Standards for Antimicrobial Susceptibility Testing; 14th Informational Supplement (M100-S14), published by The National Committee for Clinical Laboratory Standards (NCCLS) guidelines; the MIC is used to compare strains. Compounds are initially dissolved in DMSO as 40 mg/ml stock solutions.

[6] = S. pneumoniae 1016 (susceptible)
[7] = H. influenzae 1218 (susceptible)

Molecule	MIC S. pyogenes 1079 ([1]; S. pyogenes 1079 (ermB)) [mg/L]	MIC S. pneumo. 1016 [2, 6] [mg/L]	MIC S. pneumo. 1095 ([3]; S. pneumoniae 1095 (ermB)) [mg/L]	MIC S. pneumo. 1175 ([4]; S. pneumoniae 1175 (mefA)) [mg/L]	MIC H. influenzae 1218 [5, 7] [mg/L]	MIC S. pyogenes 1079 ([1]; Streptococcus pyogenes 1079) [mg/L]	MIC S. pneumo. 1016 ([2]; Streptococcus pneumoniae 1016) [mg/L]	MIC S. pneumo. 1095 ([3]; Streptococcus pneumoniae 1095) [mg/L]	MIC S. pneumo. 1175 ([4]; Streptococcus pneumoniae 1175) [mg/L]	MIC H. influenzae 1218 ([5]; Haemophilus influenzae 1218) [mg/L]
CC[C@H]1OC(=O)[C@H](C)C(=O)[C@H](C)[C@@H](O[C@@H]2O[C@H](C)C[C@H](N(C)C)[C@H]2O)[C@](C)(OC)C[C@@H](C)C(=O)[C@H](C)[C@H]2N(CC3(O)CN(C(=O)c4cn5ccccc5n4)C3)C(=O)O[C@]12C.O=CO [7.29]	>64.00	<0.06	0.25	8	1	–	–	–	–	–
CCC1OC(=O)C(C)C(=O)C(C)C(OC2OC(C)CC(N(C)C)C2O)C(C)(OC)CC(C)C(=O)C(C)C2N(C3CN(Cc4cccc(C#N)c4)C3)C(=O)OC12C (stereo not shown) [Example 1.15, 3-cyanobenzyl]	–	–	–	–	–	>64.00	<0.06	<0.06	0.25 (≈ 0.319 µM)	0.25 (≈ 0.319 µM)
CCC1OC(=O)C(C)C(=O)C(C)C(OC2OC(C)CC(N(C)C)C2O)C(C)(OC)CC(C)C(=O)C(C)C2N(CC3CCCN3C(=O)c3cnc4ncccc4c3)C(=O)OC12C (stereo not shown) [10.38]	>64.00	<0.06	<0.06	0.5 (≈ 0.587 µM)	1 (≈ 1.17 µM)	–	–	–	–	–
CCC1OC(=O)C(C)C(=O)C(C)C(OC2OC(C)CC(N(C)C)C2O)C(C)(OC)CC(C)C(=O)C(C)C2N(C3CN(Cc4ccc5c(c4)OCO5)C3)C(=O)OC12C (stereo not shown) [Example 1.104, 3-descladinosyl-11,12-dideoxy-6-O-methyl-3-oxo-12,11-(oxycarbonyl-(1-(benzo[d][1,3]dioxole-5-methyl)-azetidin-3-yl)-imino)erythromycin A]	–	–	–	–	–	>64	<0.063	<0.063	0.125 (≈ 0.156 µM)	0.25 (≈ 0.312 µM)
CCC1OC(=O)C(C)(F)C(=O)C(C)C(OC2OC(C)CC(N(C)C)C2O)C(C)(OC)CC(C)C(=O)C(C)C2N(CC3CCCN3C(=O)c3cc4ccccn4n3)C(=O)OC12C (stereo not shown) [10.28]	16 (≈ 18.6 µM)	<0.06	<0.06	0.12 (≈ 0.14 µM)	1 (≈ 1.17 µM)	–	–	–	–	–
CC[C@H]1OC(=O)[C@H](C)C(=O)[C@H](C)[C@@H](O[C@@H]2O[C@H](C)C[C@H](N(C)C)[C@H]2O)[C@](C)(OC)C[C@@H](C)C(=O)[C@H](C)[C@H]2N(CC3(O)CN(C(=O)c4cc5ncccc5[nH]4)C3)C(=O)O[C@]12C.O=CO [7.32]	>64.00	<0.06	<0.06	2	2	–	–	–	–	–
CCC1OC(=O)C(C)C(=O)C(C)C(OC2OC(C)CC(N(C)C)C2O)C(C)(OC)CC(C)C(=O)C(C)C2N(CC3CCN(Cc4ccc(OC)nc4)C3)C(=O)OC12C (stereo not shown) [11.07]	16 (≈ 19.6 µM)	<0.06	<0.06	0.25 (≈ 0.306 µM)	1 (≈ 1.22 µM)	–	–	–	–	–
CCC1OC(=O)C(C)C(=O)C(C)C(OC2OC(C)CC(N(C)C)C2O)C(C)(OC)CC(C)C(=O)C(C)C2N(C3CN(Cc4ccc5nc(C)sc5n4)C3)C(=O)OC12C (stereo not shown) [Example 1.34, (2-methyl-thiazolo[5,4-b]pyridin-5-yl)methyl]	–	–	–	–	–	32 (≈ 38.6 µM)	<0.06	<0.06	0.12 (≈ 0.145 µM)	0.5 (≈ 0.602 µM)
CCC1OC(=O)C(C)C(=O)C(C)C(OC2OC(C)CC(N(C)C)C2O)C(C)(OC)CC(C)C(=O)C(C)C2N(C3CN(S(=O)(=O)c4cccc5ncccc45)C3)C(=O)OC12C (stereo not shown) [Example 3.100, 3-descladinosyl-11,12-dideoxy-6-O-methyl-3-oxo-12,11-(oxycarbonyl-(1-(quinoline-5-sulfonyl)-azetidin-3-yl)-imino)-erythromycin A]	–	–	–	–	–	0.125 (≈ 0.146 µM)	<0.063	<0.063	<0.063	0.5 (≈ 0.582 µM)
CCC1OC(=O)C(C)C(=O)C(C)C(OC2OC(C)CC(N(C)C)C2O)C(C)(OC)CC(C)C(=O)C(C)C2N(C3CN(S(=O)(=O)c4ccc(Oc5ccncc5)cc4)C3)C(=O)OC12C (stereo not shown) [Example 3.26]	–	–	–	–	–	64 (≈ 71 µM)	<0.06	<0.06	8 (≈ 8.88 µM)	4 (≈ 4.44 µM)
3-descladinosyl-11,12-dideoxy-6-O-methyl-3-oxo-12,11-(oxycarbonyl-(1-(quinoline-6-sulfonyl)-azetidin-3-yl)-imino)-erythromycin A [Example 3.89]	–	–	–	–	–	8	<0.06	<0.06	<0.06	1
CCC1OC(=O)C(C)C(=O)C(C)C(OC2OC(C)CC(N(C)C)C2O)C(C)(OC)CC(C)C(=O)C(C)C2N(CC3CCCN3C(=O)c3ccnc4ccccc34)C(=O)OC12C (stereo not shown) [12.08]	>64.00	<0.06	1 (≈ 1.18 µM)	2 (≈ 2.35 µM)	16 (≈ 18.8 µM)	–	–	–	–	–
CCC1OC(=O)C(C)C(=O)C(C)C(OC2OC(C)CC(N(C)C)C2O)C(C)(OC)CC(C)C(=O)C(C)C2N(C3CN(C(C)c4ccncc4)C3)C(=O)OC12C (stereo not drawn) [Example 1.22, 1S-(pyridin-4-yl)ethyl]	–	–	–	–	–	>64.00	<0.06	1 (≈ 1.29 µM)	1 (≈ 1.29 µM)	16 (≈ 20.7 µM)
CC[C@H]1OC(=O)[C@H](C)C(=O)[C@H](C)[C@@H](O[C@@H]2O[C@H](C)C[C@H](N(C)C)[C@H]2O)[C@](C)(OC)C[C@@H](C)C(=O)[C@H](C)[C@H]2N(CC3(O)CN(Cc4cccc5nc[nH]c45)C3)C(=O)O[C@]12C [7.08]	>64.00	<0.06	<0.06	0.25 (≈ 0.302 µM)	0.25 (≈ 0.302 µM)	–	–	–	–	–
CCC1OC(=O)C(C)C(=O)C(C)C(OC2OC(C)CC(N(C)C)C2O)C(C)(OC)CC(C)C(=O)C(C)C2N(C3CN(Cc4ccnc5nccnc45)C3)C(=O)OC12C (stereo not shown) [Example 1.24, 3-descladinosyl-11,12-dideoxy-6-O-methyl-3-oxo-12,11-(oxycarbonyl-(1-((pyrido[2,3-b]pyrazin-4-yl)-methy)-azetidin-3-yl)-imino)-erythromycin A]	–	–	–	–	–	4 (≈ 4.93 µM)	<0.06	<0.06	0.25 (≈ 0.308 µM)	1 (≈ 1.23 µM)
CCC1OC(=O)C(C)C(=O)C(C)C(OC2OC(C)CC(N(C)C)C2O)C(C)(OC)CC(C)C(=O)C(C)C2N(C3CN(Cc4cccn5nccc45)C3)C(=O)OC12C (stereo not shown) [Example 1.83, 3-descladinosyl-11,12-dideoxy-6-O-methyl-3-oxo-12,11-(oxycarbonyl-(1-(H-pyrazolo[1,5-a]pyridine-4-methyl)-azetidin-3-yl)-imino)-erythromycin A]	–	–	–	–	–	4 (≈ 5.01 µM)	<0.063	<0.063	<0.063	1 (≈ 1.25 µM)
CC[C@H]1OC(=O)[C@H](C)C(=O)[C@H](C)[C@@H](O[C@@H]2O[C@H](C)C[C@H](N(C)C)[C@H]2O)[C@](C)(OC)C[C@@H](C)C(=O)[C@H](C)[C@H]2N(CC3(O)CN(C(=O)c4cccc5ncccc45)C3)C(=O)O[C@]12C [7.19]	>64.00	<0.06	0.12 (≈ 0.141 µM)	0.25 (≈ 0.293 µM)	1 (≈ 1.17 µM)	–	–	–	–	–
